The text below walks through data of patent US20050119316A1, “Semicarbazide derivatives and the use thereof as antithrombotics” (Merch Patent GmbH, priority 2002, published 2005).

As a reminder, the IC50 is the midpoint of a concentration-inhibition curve. Higher therefore signals weaker potency in that assay.

One assay concerns the target FXa (Homo sapiens, UniProt P00742). In words: Inhibition of factor Xa (Table 1, affinity to receptors). In kind it is biochemical. The text has this:
The inhibition of factor Xa by the compounds according to the invention and the measurement of the anticoagulant and antithrombotic activity can be determined by conventional in-vitro or in-vivo methods. A suitable method is described, for example, by J. Hauptmann et al. in Thrombosis and Haemostasis 1990, 63, 220-223.
The inhibition of factor Xa can be measured, for example, by the method of T. Hara et al. in Thromb. Haemostas. 1994, 71, 314-319.

A further assay addresses TF/FVIIa (Homo sapiens, UniProt P08709). In words: Inhibition of TF/factor VIIa (Table 1, affinity to receptors). In kind it is biochemical. The text has this:
The inhibition of factor VIIa by the compounds according to the invention and the measurement of the anticoagulant and antithrombotic activity can be determined by conventional in-vitro or in-vivo methods. A conventional method for the measurement of the inhibition of factor VIIa is described, for example, by H. F. Ronning et al. in Thrombosis Research 1996, 84, 73-81.

Chain of FXa (P00742 235-488 limits assumed): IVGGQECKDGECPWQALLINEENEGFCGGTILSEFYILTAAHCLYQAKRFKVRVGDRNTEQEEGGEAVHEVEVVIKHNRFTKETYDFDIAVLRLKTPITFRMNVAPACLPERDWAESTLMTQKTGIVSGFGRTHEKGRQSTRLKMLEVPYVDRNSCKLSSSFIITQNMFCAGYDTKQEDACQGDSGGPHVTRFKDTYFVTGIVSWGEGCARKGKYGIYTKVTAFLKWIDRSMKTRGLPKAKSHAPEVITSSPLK
Chain of FXa (P00742 41-179 partner limits assumed): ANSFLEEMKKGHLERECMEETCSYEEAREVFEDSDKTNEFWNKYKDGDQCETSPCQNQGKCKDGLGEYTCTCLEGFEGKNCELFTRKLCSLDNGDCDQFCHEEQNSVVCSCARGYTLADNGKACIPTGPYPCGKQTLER
Chain of TF/FVIIa (P08709 213-466 limits assumed): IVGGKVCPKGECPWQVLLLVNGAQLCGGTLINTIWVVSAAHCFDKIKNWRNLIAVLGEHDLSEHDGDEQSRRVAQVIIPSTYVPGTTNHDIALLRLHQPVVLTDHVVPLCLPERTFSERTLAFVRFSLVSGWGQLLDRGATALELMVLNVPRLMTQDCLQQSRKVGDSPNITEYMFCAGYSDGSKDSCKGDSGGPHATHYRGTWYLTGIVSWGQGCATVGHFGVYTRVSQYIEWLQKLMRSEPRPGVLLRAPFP
Chain of TF/FVIIa (P08709 61-212 partner limits assumed): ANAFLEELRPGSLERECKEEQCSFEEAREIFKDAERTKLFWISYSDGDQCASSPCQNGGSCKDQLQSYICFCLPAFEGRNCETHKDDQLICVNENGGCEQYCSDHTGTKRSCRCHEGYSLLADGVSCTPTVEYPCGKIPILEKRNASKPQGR
Chain of TF/FVIIa (P13726 33-295 partner): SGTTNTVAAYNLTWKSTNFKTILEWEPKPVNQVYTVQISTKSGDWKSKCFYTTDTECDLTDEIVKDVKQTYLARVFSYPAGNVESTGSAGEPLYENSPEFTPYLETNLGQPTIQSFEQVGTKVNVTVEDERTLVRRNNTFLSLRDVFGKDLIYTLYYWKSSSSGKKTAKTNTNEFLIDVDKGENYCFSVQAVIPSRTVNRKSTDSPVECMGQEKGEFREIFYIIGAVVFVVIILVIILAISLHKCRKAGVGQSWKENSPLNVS

Regarding `CS(=O)(=O)c1ccccc1-c1ccc(NC(=O)NN(c2ccccc2)c2cccc(CN)c2)c(F)c1` [Compound 10, 1-(3-aminomethylphenyl)-4-(3-fluoro-2′-methylsulfonylbiphenyl-4-yl)-1-phenylsemicarbazide], the IC50 came out at 2.4 µM against FXa and 4.2 µM against TF/FVIIa.

For the compound `CS(=O)(=O)c1ccccc1-c1ccc(NC(=O)NN(c2ccccc2)c2cccc(C(N)=NO)c2)c(F)c1` [Compound 8, 1-(3-N-hydroxyamidinophenyl)-4-(3-fluoro-2′-methylsulfonylbiphenyl-4-yl)-1-phenylsemicarbazide], the values for the IC50 against FXa and at TF/FVIIa were 3.8 µM and 8.8 µM, respectively.

Regarding `CS(=O)(=O)c1ccccc1-c1ccc(NC(=O)NN(c2ccccc2)c2cccc(C(=N)N)c2)c(F)c1` [Compound 9, 1-(3-amidinophenyl)-4-(3-fluoro-2′-methylsulfonylbiphenyl-4-yl)-1-phenylsemicarbazide], the figures for the IC50 against FXa and at TF/FVIIa were 0.028 µM and 0.012 µM, respectively.
